In ChEMBL document CHEMBL1201862, “PubChem BioAssay data set” (2004):
Calls of active or inactive are those of the source.

Experiments:
[1] = target: Nucleotide-binding oligomerization domain-containing protein 2 (Homo sapiens, UniProt Q9HC29); assay: NOD2 signaling inhibitors, cell-based, luminescence, uHTS, HEK293 (AID 1566); type: functional
Beta-galactosidase = Beta-galactosidase (Escherichia coli, UniProt Q8VNN2); assay: beta-galactosidase enzyme inhibitors and activators, dose response, artefact control for CCR6 antagonist project, biochemical, E. coli enzyme, set 3 (AID 504712); type: functional
NS3 = NS3 (Hepatitis C virus, UniProt A3EZJ3); assay: PubChem AID 2173; set-up: species or system Hepacivirus hominis
Fatty acid synthase = Fatty acid synthase (Homo sapiens, UniProt P49327); assay: FAS thioesterase domain inhibitors, dose response, biochemical, endpoint fluorescence intensity, uHTS hits (AID 624327); type: functional;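 also: fluorescence from hydrolysis of an O-methyl fluorescein acyl ester substrate by the enzyme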
[2] = target: Sphingosine 1-phosphate receptor 1 (Homo sapiens, UniProt P21453); type: functional;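 also: Tango beta-arrestin reporter U2OS cells stimulated with S1P near its EC80; inhibitor potency meaning antagonism of receptor activation by the natural agonist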
[3] = BHK-21 cell cytotoxicity, cytotoxicity control for flavivirus guanylyltransferase probe project, secondary screen (AID 624078); type: functional
[4] = target: Polyadenylate-binding protein 1 (Homo sapiens, UniProt P11940); assay: PABP1 MLLE–PAM2 interaction inhibitors, dose response, miRNA deadenylation inhibitor project, biochemical, fluorescence polarization, Cy5-PAM2 peptide, secondary (AID 602260); type: functional; conditions: read-out: IC50_Mean
[5] = target: T1, Tyrosyl-DNA phosphodiesterase 2 (Homo sapiens, UniProt O95551); assay: human TDP2 enzyme inhibitors, dose response, biochemical, epi absorbance, IC50 (AID 743297)
T1 sequence (O95551 whole entry): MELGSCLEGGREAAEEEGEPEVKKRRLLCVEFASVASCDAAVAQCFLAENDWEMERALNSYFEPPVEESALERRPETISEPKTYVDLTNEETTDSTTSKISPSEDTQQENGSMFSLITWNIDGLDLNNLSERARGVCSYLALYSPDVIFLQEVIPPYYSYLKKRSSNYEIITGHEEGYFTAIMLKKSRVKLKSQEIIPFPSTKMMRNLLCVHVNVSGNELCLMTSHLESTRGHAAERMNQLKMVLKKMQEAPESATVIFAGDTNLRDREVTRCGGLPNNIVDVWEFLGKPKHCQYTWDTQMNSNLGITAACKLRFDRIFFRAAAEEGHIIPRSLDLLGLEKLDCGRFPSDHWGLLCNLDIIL

[6] = target: Heat shock protein HSP 90-alpha (Homo sapiens, UniProt P07900); type: functional, organism-based
HEK293 [7] = assay: inhibitors of LMP1-driven NF-kB reporter, dose response, cell-based, HEK293, luciferase, cherry-pick (AID 588343); type: functional; conditions: Homo sapiens
[8] = miR-122 activators in hepatoma reporter cells, dose response, cell-based, Huh7 psiCHECK-miR122, Renilla luciferase, cherry-picked (AID 651956); type: functional;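 also: huh7 hepatoma cells stably carrying a psiCHECK-2 miR-122 sensor plasmid; renilla luciferase signal reporting endogenous miR-122 activity after 48 h compound exposure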
[9] = target: T2, Neuropeptide Y receptor type 2 (Homo sapiens, UniProt P49146); assay: Fluorescence-based cell-based high-throughput dose response assay for agonists of NPY-Y2. [Related pubchem assays: 1703 (Screening assay (CNGC inhibitors).), 1359 (Screening assay (NPY-Y2 potentiators or agonists).), 1304 (Screening assay (NPY-Y1 potentiators or agonists).), 1710 (Screening assay (NPY-Y2 agonists).), 1791 (Summary AID.)]; type: functional
T2 sequence (P49146 whole entry): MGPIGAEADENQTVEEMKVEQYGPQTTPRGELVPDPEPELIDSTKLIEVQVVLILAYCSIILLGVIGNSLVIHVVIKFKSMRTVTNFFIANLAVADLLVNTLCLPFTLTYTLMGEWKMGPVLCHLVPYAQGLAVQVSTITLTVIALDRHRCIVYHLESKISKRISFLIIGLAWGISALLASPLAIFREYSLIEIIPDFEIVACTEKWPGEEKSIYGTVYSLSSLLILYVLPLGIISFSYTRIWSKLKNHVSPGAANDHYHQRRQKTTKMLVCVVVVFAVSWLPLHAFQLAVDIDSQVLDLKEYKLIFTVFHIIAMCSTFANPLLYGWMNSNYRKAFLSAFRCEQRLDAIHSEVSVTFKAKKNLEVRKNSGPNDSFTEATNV

HEK293 [10] = assay: Fluorescence-based counterscreen for potentiators or agonists of NPY-Y2: cell-based high-throughput dose response assay to identify inhibitors of cyclic nucleotide gated ion channel (CNGC) activity. In this assay, the parental HEK293 cell line transfected with a cyclic-nucleotide gated ion channel (CNGC)-based cAMP sensor is used to measure inhibition of isoproterenol-induced CNGC activity by test compound.; type: functional; conditions: Homo sapiens
[11] = target: T3, Sentrin-specific protease 8 (Homo sapiens, UniProt Q96LD8); type: functional;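 also: luminescence read-out of SENP8 inhibition, dose-response confirmation following an ultra-high-throughput screen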
T3 sequence (Q96LD8 whole entry): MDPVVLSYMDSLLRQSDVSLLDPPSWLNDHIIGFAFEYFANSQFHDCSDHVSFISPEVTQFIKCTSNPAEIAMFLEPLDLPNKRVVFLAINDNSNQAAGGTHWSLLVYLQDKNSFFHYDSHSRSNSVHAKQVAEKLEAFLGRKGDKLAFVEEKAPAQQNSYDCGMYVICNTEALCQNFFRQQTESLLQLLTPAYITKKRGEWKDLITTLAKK

[12] = target: T4, Sentrin-specific protease 7 (Homo sapiens, UniProt Q9BQF6); type: functional;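 also: Luminescence-based dose-response confirmation of ultra-high-throughput screening hits, measuring inhibition of SENP7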
T4 sequence (Q9BQF6 whole entry): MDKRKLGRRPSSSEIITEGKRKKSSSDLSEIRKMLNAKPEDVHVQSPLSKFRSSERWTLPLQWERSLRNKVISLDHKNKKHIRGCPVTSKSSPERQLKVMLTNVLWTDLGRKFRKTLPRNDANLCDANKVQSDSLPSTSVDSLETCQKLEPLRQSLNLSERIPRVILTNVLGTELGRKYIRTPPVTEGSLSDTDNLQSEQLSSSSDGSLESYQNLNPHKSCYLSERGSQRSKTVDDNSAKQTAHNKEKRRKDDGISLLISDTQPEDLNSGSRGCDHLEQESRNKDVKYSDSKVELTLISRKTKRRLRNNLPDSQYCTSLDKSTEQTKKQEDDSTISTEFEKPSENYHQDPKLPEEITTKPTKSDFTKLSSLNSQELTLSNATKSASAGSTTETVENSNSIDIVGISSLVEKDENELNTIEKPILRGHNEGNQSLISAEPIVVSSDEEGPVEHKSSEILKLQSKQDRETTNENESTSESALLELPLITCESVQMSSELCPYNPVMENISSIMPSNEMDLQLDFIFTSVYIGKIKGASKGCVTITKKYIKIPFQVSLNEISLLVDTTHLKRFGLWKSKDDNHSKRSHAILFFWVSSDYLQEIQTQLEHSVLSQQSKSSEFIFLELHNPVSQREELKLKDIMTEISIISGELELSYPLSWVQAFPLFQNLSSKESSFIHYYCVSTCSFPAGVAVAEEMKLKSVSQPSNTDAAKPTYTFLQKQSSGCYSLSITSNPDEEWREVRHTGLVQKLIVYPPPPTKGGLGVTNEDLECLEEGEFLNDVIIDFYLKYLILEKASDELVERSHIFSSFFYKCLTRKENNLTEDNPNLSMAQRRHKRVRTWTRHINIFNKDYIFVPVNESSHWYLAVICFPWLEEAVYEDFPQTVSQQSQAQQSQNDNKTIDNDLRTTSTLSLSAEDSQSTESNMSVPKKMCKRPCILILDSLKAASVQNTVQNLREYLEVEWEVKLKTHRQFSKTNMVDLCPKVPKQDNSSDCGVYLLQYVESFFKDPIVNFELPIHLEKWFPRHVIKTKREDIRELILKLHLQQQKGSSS

Sphingosine 1-phosphate receptor 1, sequence (P21453 whole entry): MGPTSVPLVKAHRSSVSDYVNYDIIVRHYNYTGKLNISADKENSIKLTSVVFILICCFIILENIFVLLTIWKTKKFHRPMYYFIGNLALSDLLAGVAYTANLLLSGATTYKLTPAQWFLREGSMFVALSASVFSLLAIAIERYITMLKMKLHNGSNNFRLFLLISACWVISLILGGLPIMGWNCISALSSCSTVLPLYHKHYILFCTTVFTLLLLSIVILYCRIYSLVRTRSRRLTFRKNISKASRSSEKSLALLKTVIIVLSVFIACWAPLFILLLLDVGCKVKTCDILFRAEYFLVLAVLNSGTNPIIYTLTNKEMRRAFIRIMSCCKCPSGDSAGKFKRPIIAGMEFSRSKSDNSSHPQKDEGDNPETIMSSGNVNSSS
NS3, sequence (A3EZJ3 whole entry, the tested form may be a part): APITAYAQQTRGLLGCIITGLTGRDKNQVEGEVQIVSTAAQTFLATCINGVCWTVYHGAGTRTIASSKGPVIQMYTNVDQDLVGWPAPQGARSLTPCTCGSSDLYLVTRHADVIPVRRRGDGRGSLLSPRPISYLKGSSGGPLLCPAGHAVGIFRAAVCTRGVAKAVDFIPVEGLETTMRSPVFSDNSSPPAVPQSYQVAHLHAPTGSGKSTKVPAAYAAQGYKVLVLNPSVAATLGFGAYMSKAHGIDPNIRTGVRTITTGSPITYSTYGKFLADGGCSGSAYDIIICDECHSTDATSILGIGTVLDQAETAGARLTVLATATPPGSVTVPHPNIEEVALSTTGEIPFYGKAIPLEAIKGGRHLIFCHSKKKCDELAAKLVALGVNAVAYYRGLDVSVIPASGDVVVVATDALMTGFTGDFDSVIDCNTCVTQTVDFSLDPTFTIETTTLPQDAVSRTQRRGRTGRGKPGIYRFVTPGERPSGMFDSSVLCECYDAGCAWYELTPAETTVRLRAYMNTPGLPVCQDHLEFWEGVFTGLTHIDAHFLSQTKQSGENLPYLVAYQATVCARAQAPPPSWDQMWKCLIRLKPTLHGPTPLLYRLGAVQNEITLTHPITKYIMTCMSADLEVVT
Beta-galactosidase, sequence (Q8VNN2 whole entry): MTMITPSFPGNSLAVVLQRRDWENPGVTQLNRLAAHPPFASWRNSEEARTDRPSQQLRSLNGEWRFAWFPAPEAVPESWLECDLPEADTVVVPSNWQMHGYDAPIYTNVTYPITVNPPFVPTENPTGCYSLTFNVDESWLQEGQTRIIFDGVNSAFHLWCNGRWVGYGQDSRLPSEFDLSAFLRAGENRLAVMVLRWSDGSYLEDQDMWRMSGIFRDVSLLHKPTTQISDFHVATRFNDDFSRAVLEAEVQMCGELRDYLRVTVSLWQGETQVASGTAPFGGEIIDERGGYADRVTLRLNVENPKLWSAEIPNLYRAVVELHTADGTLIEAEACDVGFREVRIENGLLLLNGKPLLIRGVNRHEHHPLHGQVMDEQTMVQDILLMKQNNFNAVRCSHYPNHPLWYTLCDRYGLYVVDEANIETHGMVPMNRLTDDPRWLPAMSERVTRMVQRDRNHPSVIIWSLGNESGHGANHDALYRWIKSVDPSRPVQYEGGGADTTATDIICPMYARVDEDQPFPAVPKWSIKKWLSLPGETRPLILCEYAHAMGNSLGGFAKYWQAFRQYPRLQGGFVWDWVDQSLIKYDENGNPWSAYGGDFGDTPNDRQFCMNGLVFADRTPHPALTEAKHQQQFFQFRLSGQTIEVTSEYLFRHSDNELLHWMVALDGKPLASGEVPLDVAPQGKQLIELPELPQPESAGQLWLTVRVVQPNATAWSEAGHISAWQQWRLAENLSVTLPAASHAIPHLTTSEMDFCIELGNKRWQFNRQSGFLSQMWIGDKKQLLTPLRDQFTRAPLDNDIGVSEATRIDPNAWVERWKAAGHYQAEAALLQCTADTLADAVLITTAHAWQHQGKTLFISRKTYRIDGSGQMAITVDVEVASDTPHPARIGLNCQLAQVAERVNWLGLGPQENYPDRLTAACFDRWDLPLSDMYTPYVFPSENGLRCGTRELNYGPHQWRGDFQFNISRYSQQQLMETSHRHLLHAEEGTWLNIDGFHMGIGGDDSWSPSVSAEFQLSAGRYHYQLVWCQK
Nucleotide-binding oligomerization domain-containing protein 2, sequence (Q9HC29 whole entry, the tested form may be a part): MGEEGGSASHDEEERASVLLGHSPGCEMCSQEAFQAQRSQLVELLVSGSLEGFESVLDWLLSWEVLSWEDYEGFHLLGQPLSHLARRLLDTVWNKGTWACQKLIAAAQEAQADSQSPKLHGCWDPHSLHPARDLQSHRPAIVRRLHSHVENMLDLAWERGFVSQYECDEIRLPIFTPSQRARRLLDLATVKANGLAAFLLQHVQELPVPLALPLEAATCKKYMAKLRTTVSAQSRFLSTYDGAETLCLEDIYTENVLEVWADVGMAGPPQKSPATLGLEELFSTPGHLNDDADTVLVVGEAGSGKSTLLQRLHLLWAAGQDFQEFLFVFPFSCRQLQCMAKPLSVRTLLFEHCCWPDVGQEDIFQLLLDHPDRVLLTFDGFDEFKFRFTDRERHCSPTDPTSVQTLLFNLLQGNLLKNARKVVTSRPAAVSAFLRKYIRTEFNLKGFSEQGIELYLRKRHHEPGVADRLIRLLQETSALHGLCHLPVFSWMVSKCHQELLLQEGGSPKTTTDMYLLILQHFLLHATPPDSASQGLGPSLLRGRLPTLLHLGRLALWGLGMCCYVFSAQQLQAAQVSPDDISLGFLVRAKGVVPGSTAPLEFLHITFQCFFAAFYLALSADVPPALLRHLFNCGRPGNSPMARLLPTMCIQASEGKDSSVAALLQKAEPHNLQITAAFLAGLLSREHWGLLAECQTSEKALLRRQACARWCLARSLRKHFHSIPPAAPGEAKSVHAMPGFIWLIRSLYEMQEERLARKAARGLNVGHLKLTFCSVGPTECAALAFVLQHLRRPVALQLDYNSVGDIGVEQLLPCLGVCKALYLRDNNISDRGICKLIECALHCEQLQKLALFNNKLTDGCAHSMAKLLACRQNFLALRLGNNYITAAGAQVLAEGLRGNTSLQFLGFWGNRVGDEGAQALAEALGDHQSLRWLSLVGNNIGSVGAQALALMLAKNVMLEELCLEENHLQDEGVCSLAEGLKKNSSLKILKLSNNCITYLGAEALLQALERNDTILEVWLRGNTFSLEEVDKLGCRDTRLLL
Polyadenylate-binding protein 1, sequence (P11940 whole entry): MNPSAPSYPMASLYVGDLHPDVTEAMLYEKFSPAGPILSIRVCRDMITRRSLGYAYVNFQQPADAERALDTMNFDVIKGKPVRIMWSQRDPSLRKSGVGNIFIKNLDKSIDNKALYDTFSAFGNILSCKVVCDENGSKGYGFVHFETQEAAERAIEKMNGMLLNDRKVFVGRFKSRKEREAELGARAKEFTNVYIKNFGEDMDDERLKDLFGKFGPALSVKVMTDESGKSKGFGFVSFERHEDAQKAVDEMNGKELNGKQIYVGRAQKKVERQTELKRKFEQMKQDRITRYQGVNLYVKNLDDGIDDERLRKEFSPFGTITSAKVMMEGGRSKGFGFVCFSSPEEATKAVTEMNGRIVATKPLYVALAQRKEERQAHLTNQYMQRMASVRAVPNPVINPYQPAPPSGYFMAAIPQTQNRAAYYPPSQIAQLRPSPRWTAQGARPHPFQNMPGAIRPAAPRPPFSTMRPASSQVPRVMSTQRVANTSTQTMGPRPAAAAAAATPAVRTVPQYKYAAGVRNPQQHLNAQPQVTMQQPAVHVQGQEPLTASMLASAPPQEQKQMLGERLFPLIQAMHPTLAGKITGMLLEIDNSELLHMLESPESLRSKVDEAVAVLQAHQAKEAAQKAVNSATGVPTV

O=C(CNc1cccc2ccccc12)N/N=C/c1ccc([N+](=O)[O-])o1
EC50 [1]: 5.55 µM (active)

Cc1ccc(NC(=O)C2=C(c3ccccc3)S(=O)(=O)CCS2(=O)=O)cc1
IC50 (Beta-galactosidase): > 66.6 µM (inactive) | IC50 (NS3): 9.23 µM (active) | IC50 (Fatty acid synthase): 3.96 µM (active) | IC50 [2]: 68.8 µM (not active)

O=C(O)CSc1cc(NS(=O)(=O)c2ccc(Br)cc2)c2ccccc2c1O
CC50 [3]: 7.81 µM (active) | IC50 [4]: > 66 µM (inactive) | IC50 [5]: 37.2 µM (inactive)

O=C(CC(O)(C(F)(F)F)C(F)(F)F)Nc1ccc(Cl)c(Cl)c1
AC50 [6]: 16.8 µM (active) | AC50 (HEK293 [7]): 1.34 µM (active) | AC50 [8]: 5.54 µM (active) | EC50 [9]: 21.7 µM (not active) | EC50 (HEK293 [10]): > 35.4 µM (not active)

O=C1NC(=S)N/C1=C/c1cc2c(cc1[N+](=O)[O-])OCO2
IC50 [11]: 9.01 µM (active) | IC50 [12]: 25.4 µM (active)
